Values after ≈ are worked out from the molar mass of the structure shown.
Conditions: buffer; pH 7.4; 200.0 µM

SMILES	solubility kinetic
O=C(NCc1ccccn1)Nc1cc(Cl)cc(Cl)c1	40.8 µg/mL (≈ 138 µM)
O=C(Nc1ccc(Br)cn1)C1CCN(S(=O)(=O)c2cccs2)CC1	< 0.3 µg/mL
CCOc1cccc(C(=O)Nc2ccc3ccccc3c2)c1	< 0.6 µg/mL
O=C1NCCCCC1NS(=O)(=O)c1ccc(Cl)cc1 (centres undefined)	> 45.4 µg/mL
O=C(CN1CCCCCC1)NCc1ccccc1	34.8 µg/mL (≈ 141 µM)
COc1cccc(CC(=O)NC2CCSc3ccccc32)c1 (centres undefined)	20.9 µg/mL (≈ 66.7 µM)
O=C(c1ccccc1)n1c(=O)c(F)cn(COCCBr)c1=O	> 55.7 µg/mL
COc1ccc(CCC(=O)NCCc2cnc[nH]2)cc1	35.2 µg/mL (≈ 129 µM)
CCOc1ccccc1NC(=O)NC(C)c1ccc2c(c1)OCO2 (centres undefined)	3.4 µg/mL (≈ 10.4 µM)
O=C(Nc1ccc(N2CCOCC2)cc1)c1ccc2ncsc2c1	10.1 µg/mL (≈ 29.8 µM)
Brc1cccc2sc(N3CCCC3)nc12	5.2 µg/mL (≈ 18.4 µM)
CCCc1cc(=O)[nH]c(SCC(=O)NCCN2C(=O)CSC2=O)n1	> 55.6 µg/mL
Cc1cccc(Nc2nnc(SC3CCOC3=O)s2)c1C (centres undefined)	> 48.2 µg/mL
NC(=O)c1cc(S(=O)(=O)N2CCOCC2)cs1	> 41.4 µg/mL
Nc1nccc(/C=C/c2c(Cl)cccc2Cl)n1	1.9 µg/mL (≈ 7.14 µM)
Cc1cc(C(=O)N(C)CC(=O)Nc2ccc(F)c(F)c2F)no1	> 49.1 µg/mL
O=C(O)c1cccnc1SCc1ccccc1Cl	> 42 µg/mL
Nc1ccc(C2(c3ccc(N)cc3)CCCCC2)cc1	36 µg/mL (≈ 135 µM)
O=C(NCCc1ccccc1F)c1cccc2cccnc12	31.4 µg/mL (≈ 107 µM)
O=C(Nc1cccnc1Cl)c1cc(-c2ccc(F)cc2)on1	< 0.2 µg/mL
Cn1c(NN)nc2ccccc2c1=O	> 28.5 µg/mL
CC(C)NC(=O)c1ccc2c(c1)N(CC(=O)N1CCCCC1)C(=O)C(C)(C)O2	44.8 µg/mL (≈ 116 µM)
N#CC1(NC(=O)CSc2nc3ccccc3o2)CCCCC1	> 47.3 µg/mL
Cc1ccc(NC(=O)CSc2ncc3ccccn23)cc1C	40.5 µg/mL (≈ 130 µM)
Nc1ccccc1C(=O)NC1CCCCNC1=O (centres undefined)	> 37.1 µg/mL

SMILES	solubility kinetic
CC(=O)Nc1ccc2c(c1)nc(CCN1CCN(c3ccccn3)CC1)n2C	< 0.1 µg/mL
COc1cccc(CNC(=O)COC(=O)c2c(NC(C)=O)sc(C)c2C)c1	1.9 µg/mL (≈ 4.87 µM)
Cc1cc(=O)c2cc(NC(=O)c3ccccc3Cl)ccc2[nH]1	9.4 µg/mL (≈ 30.1 µM)
COc1ccc(C(=S)N2CCOCC2)cc1OC(=O)c1ccccc1	23.6 µg/mL (≈ 66 µM)
COc1ccc(CN(C)C(=O)c2[nH]c(C)c(C(C)=O)c2C)cc1F	> 49.9 µg/mL
N#CC1=C(N)Oc2cc(N)ccc2C1c1ccccc1F (centres undefined)	4.9 µg/mL (≈ 17.4 µM)
N=C1SCC(=O)N1c1ccccc1Cl	> 34 µg/mL
O=C(c1cccc(Cl)c1)N1CCN(c2ncccn2)CC1	> 45.4 µg/mL
Cc1cc(C)c(S(=O)(=O)Cc2ccccc2)c(Cl)n1	> 44.4 µg/mL
Clc1ccc(C2=CSC3=NCCN23)c(Cl)c1.[Br-]	> 52.7 µg/mL
Cc1csc(NC(=O)CSc2nncs2)n1	> 40.9 µg/mL
CC(C)C(=O)N1CCN(S(=O)(=O)c2ccc3ccccc3c2)CC1	23.2 µg/mL (≈ 67 µM)
Cc1cccnc1NC(=O)C(c1ccccc1)c1ccccc1	> 45.4 µg/mL
COc1cc(/C=C/c2[nH]c(=O)[nH]c(=O)c2[N+](=O)[O-])cc(OC)c1O	> 50.3 µg/mL
CCC(Oc1ccc(C)cc1)C(=O)Nc1ccc2c(c1)n(C)c(=O)n2C (centres undefined)	> 53 µg/mL
Cc1cc(C)c2c(CN3CC(C)OC(C)C3)cc(=O)oc2c1C (centres undefined)	13.6 µg/mL (≈ 43.1 µM)
O=C(Nc1ccc(C2CC2(Cl)Cl)cc1)c1cccc([N+](=O)[O-])c1 (centres undefined)	< 0.4 µg/mL
Cc1ccc(NC(=O)NCc2cccnc2)cc1C	38.2 µg/mL (≈ 150 µM)
O=C(CCc1ccccc1)NC1CCS(=O)(=O)C1 (centres undefined)	> 40.1 µg/mL
CNC(=O)N1CCC(C(=O)c2c(C)c(C)c(C)c(C)c2C)CC1	36.5 µg/mL (≈ 115 µM)
O=C(NCc1ccccc1Br)c1ccncc1	39.9 µg/mL (≈ 137 µM)
CC1CCCCN1S(=O)(=O)c1cccc2nonc12 (centres undefined)	39.6 µg/mL (≈ 141 µM)
O=Cc1c(Cl)nc2ccccn2c1=O	> 31.3 µg/mL
CC(Sc1nc(-c2ccco2)nc2c1c(=O)n(C)c(=O)n2C)C(=O)O (centres undefined)	> 54.4 µg/mL
